According to patent publication US9682962B2, “Pyrazolyl pyrimidinamine compound and application thereof” (SHENYANG SINOCHEM AGROCHEMICALS R&D CO., LTD., priority 2013, dated 2017):

Legend:
wheat powdery mildew = assay: Protectant activity in vivo (whole plant), wheat powdery mildew; settings: for control effect against wheat powdery mildew (%): protectant activity
Experimental: (§1) The method is as followed: The whole plant is used in this test. The compound is dissolved in a proper solvent to get mother solution. The proper solvent is selected from acetone, methanol, DMF and so on according to their dissolving capability to the sample. […] The testing solution is sprayed to the host plant by a special plant sprayer. The plant is inoculated with fungus after 24 hours. According to the infecting characteristic of fungus, the plant is stored in a humidity chamber and then transferred into greenhouse after infection is finished. And the other plants are placed in greenhouse directly.

cucumber anthracnose = assay: Protectant activity in vivo (whole plant), cucumber anthracnose; settings: for control effect against cucumber anthracnose (%): protectant activity
Experimental: as §1

[1] = tested on: Green peach aphids (Myzus Persicae Sulzer); assay: Bioactivity test against green peach aphid (airbrush foliar spray); assay type: in vivo
Experimental: Compounds were dissolved in mixed solvent (acetone:methanol=1:1), and diluted to required concentration with water containing 0.1% of tween 80.
Diamond back moth, armyworm, peach aphid and carmine spider mite were used as targets and the method of spraying by airbrush was used for determination of insecticidal bioassays.
Method: Filter papers were put in culture dishes (Diameter=6 cm), and water was dripped on filter papers for preserving moisture. Green peach aphids (Myzus Persicae Sulzer) were maintained on cabbage. Leaves (Diameter=3 cm) of approximately 15-30 aphids were put in the culture dishes. Bioactivity tests were used the method of Airbrush Foliar Spray, pressure=10 psi (0.7 kg/cm2), spray volume=0.5 mL. The studies were conducted at […] 25±1 C in incubator cabinets with 60±5% RH. Survey the survival aphids after 48 h and calculate the death rates.

cucumber downy mildew = assay: Protectant activity in vivo (whole plant), cucumber downy mildew; settings: protectant activity
Experimental: as §1

Compound	control effect against wheat powdery mildew (%) (wheat powdery mildew; 100 mg/L)	control effect against wheat powdery mildew (%) (wheat powdery mildew; 400 mg/L)	control effect against wheat powdery mildew (%) (wheat powdery mildew; 6.25 mg/L)	control effect against wheat powdery mildew (%) (wheat powdery mildew; 25 mg/L)	Insecticidal activity against peach aphid (%) ([1]; 100 mg/L)	Insecticidal activity against peach aphid (%) ([1]; 600 mg/L)	Insecticidal activity against peach aphid (%) ([1]; 10 mg/L)	control effect against cucumber downy mildew(%) (cucumber downy mildew; 25 mg/L)	control effect against cucumber downy mildew(%) (cucumber downy mildew; 50 mg/L)	control effect against cucumber downy mildew(%) (cucumber downy mildew; 100 mg/L)	control effect against cucumber downy mildew(%) (cucumber downy mildew; 400 mg/L)	further results
Cc1ncnc(NCCc2cnn(C(C)(C)C)c2)c1Cl [Compound 8]	100	100	–	–	–	–	–	–	–	–	–	control effect against cucumber anthracnose (%) (cucumber anthracnose; 6.25 mg/L): 60%; control effect against cucumber anthracnose (%) (cucumber anthracnose; 25 mg/L): 80%; control effect against cucumber anthracnose (%) (cucumber anthracnose; 100 mg/L): 90%; control effect against cucumber anthracnose (%) (cucumber anthracnose; 400 mg/L): 100%
CC(C)(C)n1cc(CCNc2ncnc(C(F)F)c2Cl)cn1 [Compound 38]	100	100	40	100	100	100	–	–	–	–	–	control effect against cucumber anthracnose (%) (cucumber anthracnose; 6.25 mg/L): 85%; control effect against cucumber anthracnose (%) (cucumber anthracnose; 25 mg/L): 90%; control effect against cucumber anthracnose (%) (cucumber anthracnose; 100 mg/L): 95%; control effect against cucumber anthracnose (%) (cucumber anthracnose; 400 mg/L): 100%
Cc1ncnc(NCCc2cnn(-c3ccc(F)cc3)c2)c1Cl [Compound 244]	100	100	50	80	71	91	65	–	–	–	–	–
Cc1ncnc(NCCc2cnn(-c3ccc(Cl)cc3Cl)c2)c1Cl [Compound 261]	80	100	50	60	–	–	–	100	100	100	100	control effect against cucumber downy mildew(%) (cucumber downy mildew; 12.5 mg/L): 100%
Cc1ncnc(NCCc2cnn(-c3ccc(C(F)(F)F)cc3)c2)c1Cl [Compound 309]	90	100	80	85	–	–	–	–	–	–	–	–
COc1ccc(-n2cc(CCNc3ncnc(C)c3Cl)cn2)cc1 [Compound 312]	100	100	95	100	–	–	–	100	100	100	100	–
Cc1ncnc(NCCc2cnn(-c3ccc(OC(F)(F)F)cc3)c2)c1Cl [Compound 318]	100	100	90	100	–	–	–	90	98	100	100	control effect against cucumber anthracnose (%) (cucumber anthracnose; 0.78 mg/L): 98%; control effect against cucumber anthracnose (%) (cucumber anthracnose; 1.56 mg/L): 98%; control effect against cucumber anthracnose (%) (cucumber anthracnose; 3.13 mg/L): 100%; control effect against cucumber anthracnose (%) (cucumber anthracnose; 6.25 mg/L): 100%; control effect against cucumber anthracnose (%) (cucumber anthracnose; 25 mg/L): 100%; control effect against cucumber anthracnose (%) (cucumber anthracnose; 100 mg/L): 100%; control effect against cucumber anthracnose (%) (cucumber anthracnose; 400 mg/L): 100%; protectant activity against cucumber anthracnose in vivo (cucumber anthracnose; 0.78 ppm): 98%; protectant activity against cucumber anthracnose in vivo (cucumber anthracnose; 1.56 ppm): 98%; protectant activity against cucumber anthracnose in vivo (cucumber anthracnose; 3.13 ppm): 100%
Cc1ncnc(NCCc2cnn(-c3c(Cl)cc(C(F)(F)F)cc3Cl)c2)c1Cl [Compound 406]	100	100	90	98	95	100	28	–	–	–	–	–
CCc1ncnc(NCCc2cnn(-c3ccc(F)cc3)c2)c1Cl [Compound 522]	–	–	–	–	96	100	33	–	–	–	–	–
CCc1ncnc(NCCc2cnn(-c3ccc(Cl)cc3Cl)c2)c1Cl [Compound 539]	–	–	–	–	–	–	–	100	100	100	100	–
CCc1ncnc(NCCc2cnn(-c3ccc(C)cc3)c2)c1Cl [Compound 575]	–	–	–	–	88	92	73	–	–	–	–	–
CCc1ncnc(NCCc2cnn(-c3ccc(C(F)(F)F)cc3)c2)c1Cl [Compound 587]	–	–	–	–	93	100	–	–	–	–	–	–
CCc1ncnc(NCCc2cnn(-c3ccc(OC)cc3)c2)c1Cl [Compound 590]	–	–	–	–	–	–	–	100	100	100	100	–
CCc1ncnc(NCCc2cnn(-c3ccc(OC(F)(F)F)cc3)c2)c1Cl [Compound 596]	100	100	95	100	–	–	–	–	–	–	–	control effect against cucumber anthracnose (%) (cucumber anthracnose; 6.25 mg/L): 75%; control effect against cucumber anthracnose (%) (cucumber anthracnose; 25 mg/L): 98%; control effect against cucumber anthracnose (%) (cucumber anthracnose; 100 mg/L): 100%; control effect against cucumber anthracnose (%) (cucumber anthracnose; 400 mg/L): 100%
Fc1ccc(-n2cc(CCNc3ncnc(C(F)F)c3Cl)cn2)cc1 [Compound 800]	100	100	95	100	100	100	71	98	100	100	100	–
FC(F)c1ncnc(NCCc2cnn(-c3ccc(Cl)cc3)c2)c1Cl [Compound 815]	100	100	80	100	94	100	41	–	–	–	–	–
Cc1ccc(-n2cc(CCNc3ncnc(C(F)F)c3Cl)cn2)cc1 [Compound 853]	–	–	–	–	–	–	–	80	100	100	100	–
COc1ccc(-n2cc(CCNc3ncnc(C(F)F)c3Cl)cn2)cc1 [Compound 868]	100	100	100	100	–	–	–	100	100	100	100	control effect against cucumber downy mildew(%) (cucumber downy mildew; 12.5 mg/L): 85%; protectant activity against wheat powdery mildew in vivo (wheat powdery mildew; 1.6 ppm): 80%
FC(F)c1ncnc(NCCc2cnn(-c3ccc(OC(F)(F)F)cc3)c2)c1Cl [Compound 874]	100	100	100	100	–	–	–	–	–	–	–	control effect against cucumber anthracnose (%) (cucumber anthracnose; 0.78 mg/L): 0%; control effect against cucumber anthracnose (%) (cucumber anthracnose; 1.56 mg/L): 20%; control effect against cucumber anthracnose (%) (cucumber anthracnose; 3.13 mg/L): 60%; control effect against cucumber anthracnose (%) (cucumber anthracnose; 6.25 mg/L): 98%; control effect against cucumber anthracnose (%) (cucumber anthracnose; 25 mg/L): 100%; control effect against cucumber anthracnose (%) (cucumber anthracnose; 100 mg/L): 100%; control effect against cucumber anthracnose (%) (cucumber anthracnose; 400 mg/L): 100%
COc1ccc(-n2cc(CCNc3nc(C)nc(C)c3Cl)cn2)cc1 [Compound 1424]	–	–	–	–	–	–	–	98	100	100	100	–
CCc1ncnc(NCCc2cnn(-c3ncccc3Cl)c2)c1Cl [Compound 4733]	–	–	–	–	100	100	88	–	–	–	–	control against Green Peach Aphid (death rate) ([1]; 10 ppm, after 48 h): more than 80%
FC(F)c1ncnc(NCCc2cnn(Cc3ccc(Cl)cc3)c2)c1Cl [Compound 5935]	–	–	–	–	56	100	61	95	100	100	100	control effect against cucumber downy mildew(%) (cucumber downy mildew; 12.5 mg/L): 50%
